Among the data in US20260209152A1, “Substituted Hydroxystilbene Compounds and Derivatives, Synthesis and Uses Thereof” (Kynan Duke IP, LLC, priority 2019, published 2026) are IC50 values, retold here.

The structures appear in SMILES notation.

Holding throughout (assay): CellTiter Glo cell viability assay
On the technique in general: Cellular ATP, detected with luciferase, serves as a proxy for viable cell number.

The subject of experiment [1] is Hypo-pharynx UPCI: SCC152. The experiment is classed as cell-based, human. Conditions: Homo sapiens; UPCI: SCC152/CRL-3240; 11 dilutions 3-0.00001 μM; read-out: IC50. In a few lines:
(§1)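 Cells seeded at 1.7*10^3/well in quadruplicate; compounds at 18 two-fold dilutions from 5 μM (0.000038146-5 μM), or at 1, 2, 5, 10 and 20 μM. CellTiter Glo luminescence read on days 1, 3 and 5 after treatment. IC50 by nonlinear regression of luminescence versus log dose.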

A further experiment has as its system Pharynx DETROIT. The experiment is classed as cell-based, human. As to conditions: Homo sapiens; Detroit 562/CCL-138; 11 dilutions 3-0.00001 μM; read-out: IC50. In short, it runs like this: as §1
Another experiment has as its system Pharynx FADU. The experiment is classed as cell-based, human. As to conditions: Homo sapiens; Fadu/HTB-43; 11 dilutions 3-0.00001 μM; read-out: IC50. In short, it runs like this:
as §1

Another experiment relates to Lung NCI-H1563. The experiment is classed as cell-based, human. Conditions: Homo sapiens; NCI-H1563/CRL-5875; 11 dilutions 3-0.00001 μM; read-out: IC50. In a few lines: as §1
A further experiment relates to Pancreatic PANC-1. Format: cell-based, human. As to conditions: Homo sapiens; PANC-1/CRL-1469; 11 dilutions 3-0.00001 μM; read-out: IC50. In a few lines: as §1
The test system of a further experiment is Tongue SCC-4. Format: cell-based, human. As to conditions: Homo sapiens; SCC-4/CRL-1624; 11 dilutions 3-0.00001 μM; read-out: IC50. In a few lines:
as §1

A further experiment concerns Lung NCI-H1437. The experiment is classed as cell-based, human. As to conditions: Homo sapiens; NCI-H1437/CRL-5872; 11 dilutions 3-0.00001 μM; read-out: IC50. In short, it runs like this:
as §1

Another experiment has as its system Ewing's Sarcoma HTB-166. The experiment is classed as cell-based, human. As to conditions: Homo sapiens; RD-ES/HTB-166; 11 dilutions 3-0.00001 μM; read-out: IC50. In a few lines:
as §1

For experiment [2], the system named is Liver cancer SNU-449/CRL-2234. Format: cell-based. Conditions: Homo sapiens, 11 dilutions 3-0.00001 μM. Here is the method:
(§2) 1.7*10^3 cells/well were seeded in quadruplicates in 96-well plate after plating. Drugs were added at 5 μM and 2-fold dilutions over 18 concentrations (0.000038146-5 […] range) to generate a dose-response curve. Cell growth was assessed on day 1, 3 and 5 after drug treatments using the CellTiter Glo Luminescence Cell Viability Assay (Promega) according to manufacturer's protocol. Thermo Scientific Varioskan LUX Multimode Microplate instrument was used for plate reading. Data are expressed as mean luminescence (arbitrary units) ±S.D.
(§3) Cell Viability Assays were employed to determine the concentration of Compound 1 (KYN-001) and analogues where the response is reduced by half. For each treatment of cancer cells, 1, 2, 5, 10 and 20 μM solutions of compounds were applied. GraphPad Prism 7 software was used to fit dose response curves. Relative Luminescence Units were plotted against the log values of the doses used and the nonlinear regression model was used for data analysis.
(§4) IC50 (μM) values correspond to log(inhibitor) vs. response (four parameters) and dose-response graphs were generated using GraphPad Prism8.

Experiment [3] concerns Osteosarcoma MG-63/CRL-1427. The experiment is classed as cell-based. As to conditions: Homo sapiens, 11 dilutions 3-0.00001 μM. Here is the method: as §2, §3, §4
In experiment [4] the test system is Muscle Ewing's Sarcoma A-673/CRL-1598. Format: cell-based. As to conditions: Homo sapiens, A673, 11 dilutions 3-0.00001 μM. Here is the method:
as §2, §3, §4

The subject of experiment [5] is Neuroblastoma CHP-212/CRL-2273. Format: cell-based. As to conditions: Homo sapiens, 11 dilutions 3-0.00001 μM. Here is the method: as §2, §3, §4
Experiment [6] deals with Colon cancer HT-29/HTB-38. Format: cell-based. As to conditions: Homo sapiens, 11 dilutions 3-0.00001 μM. Here is the method:
as §2, §3, §4

The test system of experiment [7] is Neuroblastoma BE(2)-C/CRL-2268. Format: cell-based. Conditions: Homo sapiens, 11 dilutions 3-0.00001 μM. Here is the method: as §2, §3, §4
Experiment [8] deals with Colon cancer SW620/CCL-227. Format: cell-based. As to conditions: Homo sapiens, SW-620, 11 dilutions 3-0.00001 μM. Here is the method:
as §2, §3, §4

For experiment [9], the system named is Neuroblastoma SK-N-DZ/CRL-2149. Format: cell-based. As to conditions: Homo sapiens, 11 dilutions 3-0.00001 μM. Here is the method: as §2, §3, §4
Experiment [10] relates to Neuroblastoma SK-N-FI/CRL-2142. The experiment is classed as cell-based. Conditions: Homo sapiens, 11 dilutions 3-0.00001 μM. Here is the method:
as §2, §3, §4

As a reminder, the IC50 is the concentration that gives 50% inhibition. Regarding `CCOc1cc(O)cc(/C=C/c2ccc(O)c(O)c2)c1CC=C(C)C` [Compound 20, (E)-4-(3-Ethoxy-5-hydroxy-2-(3-methylbut-2-en-1-yl)styryl)benzene-1,2-diol], the IC50 in [1] stood at 149 nM; with Pharynx DETROIT, 122 nM; in the experiment with Pharynx FADU, 80.1 nM; in the experiment on Lung NCI-H1563, 74.1 nM; in the experiment with Pancreatic PANC-1, 41.6 nM; in the experiment with Tongue SCC-4, 31.3 nM. Besides, the IC50 was 73.2 nM in the experiment on Lung NCI-H1437; 338 nM in the experiment on Ewing's Sarcoma HTB-166; 64 nM in experiment [2]; 31.3 nM in experiment [3]; 312 nM in [4]; 26.1 nM in [5]. Also, the IC50 in [6] is 1990 nM; in experiment [7], 54.8 nM; in experiment [8], 103 nM; in experiment [9] it was 140 nM; in experiment [10], 48.5 nM.
In the case of `CCOc1cc(O)cc(/C=C/c2ccc(NC=O)c(OC)c2)c1CC=C(C)C` [Compound 28, (E)-N-(4-(3-Ethoxy-5-hydroxy-2-(3-methylbut-2-en-1-yl)styryl)-2-methoxyphenyl)formamide], the concentration for half-maximal inhibition (IC50) worked out at 20.5 nM in [1]; 11.4 nM with Pharynx DETROIT; 11.8 nM in the experiment on Pharynx FADU; 15.9 nM with Lung NCI-H1563; 17.8 nM in the experiment with Pancreatic PANC-1; 3.1 nM in the experiment with Tongue SCC-4. For the same compound, the half-inhibitory concentration (IC50) came to 25.9 nM in the experiment with Lung NCI-H1437; 65.1 nM in the experiment on Ewing's Sarcoma HTB-166; 10.2 nM in experiment [2]; 4.8 nM in experiment [3]; 112 nM in experiment [4]; 3 nM in experiment [5]. For the same compound, the half-maximal inhibitory concentration (IC50) in experiment [6] was found to be 325 nM; in experiment [7] it was 11.2 nM; in experiment [8] it was 18 nM; in [9], 16.4 nM; in [10] it was 9.7 nM.
